In EPA's CvTdb concentration-time database:

Legend:
Rat [1] = experiment: concentration in plasma after dosing; settings: 2 h; dosed: Wyeth-14643; 1.0 mg/kg; oral; Male; Sprague-Dawley
Rat [2] = experiment: concentration in plasma after dosing; settings: 1 h; dosed: Wyeth-14643; 5.0 mg/kg; oral; Male; Sprague-Dawley
Rat [3] = experiment: concentration in plasma after dosing; settings: dosed: Wyeth-14643, 2.0 mg/kg, oral, Male, Sprague-Dawley
Rat [4] = experiment: concentration in plasma after dosing; settings: 1 h; dosed: Wyeth-14643; 1.0 mg/kg; oral; Male; Sprague-Dawley
Rat [5] = experiment: concentration in plasma after dosing; settings: dosed: Wyeth-14643, 1.0 mg/kg, oral, Male, Sprague-Dawley
Rat [6] = experiment: concentration in heart after dosing; settings: 20 min; dosed: Bis 2-Chloroethoxy Methane; 20 mg/kg; iv; Female; F344
Rat [7] = experiment: concentration in heart after dosing; settings: 3 h; dosed: Bis 2-Chloroethoxy Methane; 20 mg/kg; iv; Male; F344
Rat [8] = experiment: concentration in thymus after dosing; settings: 3 h; dosed: Bis 2-Chloroethoxy Methane; 20 mg/kg; iv; Female; F344
Rat [9] = experiment: concentration in plasma after dosing; settings: dosed: Bis 2-Chloroethoxy Methane, 40 mg/kg, iv, Male, Harlan Sprague Dawley
Rat [10] = experiment: concentration in thymus after dosing; settings: 4 h; dosed: Bis 2-Chloroethoxy Methane; 20 mg/kg; iv; Male; F344
Rat [11] = experiment: concentration in plasma after dosing; settings: 2 h; dosed: Bis 2-Chloroethoxy Methane; 20 mg/kg; iv; Female; F344
Rat [12] = experiment: concentration in liver after dosing; settings: 40 min; dosed: Bis 2-Chloroethoxy Methane; 20 mg/kg; iv; Female; F344
Rat [13] = experiment: concentration in thymus after dosing; settings: 4 h; dosed: Bis 2-Chloroethoxy Methane; 20 mg/kg; iv; Female; F344
Rat [14] = experiment: concentration in thymus after dosing; settings: 20 min; dosed: Bis 2-Chloroethoxy Methane; 20 mg/kg; iv; Male; F344
Rat [15] = experiment: concentration in plasma after dosing; settings: dosed: Fluorotelomer alcohol 8+2, 12 mg/kg, iv, Male, F344
Rat [16] = experiment: concentration in plasma after dosing; settings: dosed: Fluorotelomer alcohol 8+2, 12 mg/kg, oral, Male, Harlan Sprague Dawley
Rat [17] = experiment: concentration in kidney after dosing; settings: 1 h; dosed: Fluorotelomer alcohol 8+2; 80 mg/kg; oral; Female; Harlan Sprague Dawley
Rat [18] = experiment: concentration in plasma after dosing; settings: 5 min; dosed: Fluorotelomer alcohol 8+2; 12 mg/kg; iv; Male; F344
Rat [19] = experiment: concentration in liver after dosing; settings: 6 h; dosed: Fluorotelomer alcohol 8+2; 24 mg/kg; oral; Male; Harlan Sprague Dawley
Rat [20] = experiment: concentration in plasma after dosing; settings: 1 h; dosed: Di-n-butyl phthalate; 50 mg/kg; oral; Male; Sprague-Dawley
Rat [21] = experiment: concentration in plasma after dosing; settings: dosed: Perfluorodecanoic acid, 2 mg/kg, oral, Male, Harlan Sprague Dawley
Rat [22] = experiment: concentration in plasma after dosing; settings: dosed: Perfluorodecanoic acid, 2 mg/kg, iv, Male, F344
Rat [23] = experiment: concentration in brain after dosing; settings: 864 h; dosed: Perfluorodecanoic acid; 10 mg/kg; oral; Male; Harlan Sprague Dawley
Rat [24] = experiment: concentration in liver after dosing; settings: 3360 h; dosed: Perfluorodecanoic acid; 10 mg/kg; oral; Male; Harlan Sprague Dawley
Rat [25] = experiment: concentration in plasma after dosing; settings: 3 h; dosed: Primidone; 80 mg/kg; oral; Female; F344
Rat [26] = experiment: concentration in plasma after dosing; settings: 30 h; dosed: Primidone; 130 mg/kg; oral; Male; F344
Rat [27] = experiment: concentration in liver after dosing; settings: 40 min; dosed: Thiodiglycolic Acid; 20 mg/kg; iv; Female; Harlan Sprague Dawley
Rat [28] = experiment: concentration in plasma after dosing; settings: 5.333 h; dosed: Thiodiglycolic Acid; 20 mg/kg; iv; Male; Harlan Sprague Dawley
Rat [29] = experiment: concentration in heart after dosing; settings: 40 min; dosed: Thiodiglycolic Acid; 20 mg/kg; iv; Male; Harlan Sprague Dawley
Rat [30] = experiment: concentration in thymus after dosing; settings: 20 min; dosed: Thiodiglycolic Acid; 20 mg/kg; iv; Female; F344
Rat [31] = experiment: concentration in thymus after dosing; settings: 10 min; dosed: Thiodiglycolic Acid; 20 mg/kg; iv; Female; Harlan Sprague Dawley
Rat [32] = experiment: concentration in heart after dosing; settings: 6.667 h; dosed: Thiodiglycolic Acid; 20 mg/kg; iv; Female; Harlan Sprague Dawley
Rat [33] = experiment: concentration in thymus after dosing; settings: 4 h; dosed: Thiodiglycolic Acid; 20 mg/kg; iv; Male; Harlan Sprague Dawley
Rat [34] = experiment: concentration in heart after dosing; settings: 8 h; dosed: Thiodiglycolic Acid; 20 mg/kg; iv; Female; Harlan Sprague Dawley
Rat [35] = experiment: concentration in heart after dosing; settings: 4 h; dosed: Thiodiglycolic Acid; 20 mg/kg; iv; Female; Harlan Sprague Dawley
Rat [36] = experiment: concentration in liver after dosing; settings: 8 h; dosed: Thiodiglycolic Acid; 20 mg/kg; iv; Female; Harlan Sprague Dawley
Rat [37] = experiment: concentration in heart after dosing; settings: 10 min; dosed: Thiodiglycolic Acid; 20 mg/kg; iv; Female; Harlan Sprague Dawley

Cc1cccc(Nc2cc(Cl)nc(SCC(=O)O)n2)c1C
concentration in plasma (Rat [1]): 266 ng/mL | concentration in plasma (Rat [2]): 5440 ng/mL | concentration in plasma (Rat [3]; 0.5 h): 1230 ng/mL | concentration in plasma (Rat [3]; 5 h): 529 ng/mL | concentration in plasma (Rat [4]): 755 ng/mL | concentration in plasma (Rat [5]; 0.25 h): 397 ng/mL | concentration in plasma (Rat [5]; 4 h): 308 ng/mL

ClCCOCOCCCl [Bis 2-Chloroethoxy Methane]
concentration in heart (Rat [6]): 6800 ng/g | concentration in heart (Rat [7]): 179 ng/g | concentration in thymus (Rat [8]): 174 ng/g | concentration in plasma (Rat [9]; 20 min): 8380 ng/mL | concentration in plasma (Rat [9]; 6.667 h): 25.4 ng/mL | concentration in thymus (Rat [10]): 149 ng/g | concentration in plasma (Rat [11]): 188 ng/mL | concentration in liver (Rat [12]): 636 ng/g | concentration in thymus (Rat [13]): 76.5 ng/g | concentration in thymus (Rat [14]): 26300 ng/g

OCCC(F)(F)C(F)(F)C(F)(F)C(F)(F)C(F)(F)C(F)(F)C(F)(F)C(F)(F)F [Fluorotelomer alcohol 8+2]
concentration in plasma (Rat [15]; 0.5 h): 1220 ng/mL | concentration in plasma (Rat [15]; 9 h): 19.6 ng/mL | concentration in plasma (Rat [16]; 5 min): 396 ng/mL | concentration in plasma (Rat [16]; 3 h): 196 ng/mL | concentration in kidney (Rat [17]): 3330 ng/g | concentration in plasma (Rat [18]): 3800 ng/mL | concentration in liver (Rat [19]): 1250 ng/g

CCCCOC(=O)c1ccccc1C(=O)O [Mono-n-butyl phthalate]
concentration in plasma (Rat [20]): 3070 ng/mL

O=C(O)C(F)(F)C(F)(F)C(F)(F)C(F)(F)C(F)(F)C(F)(F)C(F)(F)C(F)(F)C(F)(F)F [Perfluorodecanoic acid]
concentration in plasma (Rat [21]; 1 h): 4030 ng/mL | concentration in plasma (Rat [21]; 192 h): 4670 ng/mL | concentration in plasma (Rat [21]; 2520 h): 645 ng/mL | concentration in plasma (Rat [22]; 1 h): 6390 ng/mL | concentration in plasma (Rat [22]; 528 h): 2520 ng/mL | concentration in plasma (Rat [22]; 3360 h): 267 ng/mL | concentration in brain (Rat [23]): 867 ng/g | concentration in liver (Rat [24]): 13300 ng/g

CCC1(c2ccccc2)C(=O)NC(=O)NC1=O [Phenobarbital]
concentration in plasma (Rat [25]): 1000 ng/mL | concentration in plasma (Rat [26]): 1780 ng/mL

O=C(O)CSCC(=O)O [Thiodiglycolic Acid]
concentration in liver (Rat [27]): 92500 ng/g | concentration in plasma (Rat [28]): 198 ng/mL | concentration in heart (Rat [29]): 2020 ng/g | concentration in thymus (Rat [30]): 5640 ng/g | concentration in thymus (Rat [31]): 10100 ng/g | concentration in heart (Rat [32]): 308 ng/g | concentration in thymus (Rat [33]): 904 ng/g | concentration in heart (Rat [34]): 393 ng/g | concentration in heart (Rat [35]): 348 ng/g | concentration in liver (Rat [36]): 737 ng/g | concentration in heart (Rat [37]): 8770 ng/g
